Measured values: patent EP0687253B1, “4-AMINOPYRIDINES, PROCESS FOR PREPARING THE SAME AND MEDICAMENTS CONTAINING THE SAME” (BOEHRINGER MANNHEIM GMBH, priority 1993, dated 1994)

Tests used:
humanem α-Thrombin = target: T1, humanem α-Thrombin (Homo sapiens, UniProt P00734); experiment: Thrombin inhibition, kinetic measurement with chromogenic substrate S-2238; format: biochemical; details: 0,1 M phosphate buffer, pH = 7.5, 25 °C, substrate H-(D)-Phe-Pro-Arg-pNA (S-2238)
T1 construct: humanem α-Thrombin (Sigma, spezifische Aktivität = 2150 NIH-units/mg); purchased Sigma
Experimental: Die kinetischen Messungen wurden in 0,1 M Phosphatpuffer, der 0.2 M Kochsalz und 0.5 % Polyethylenglycol 6000 enthielt. bei einem pH = 7.5 und 25 °C mit dem Substrat H-(D)-Phe-Pro-Arg-pNA (S-2238 Kabi) und humanem α-Thrombin (Sigma, spezifische Aktivität = 2150 NIH-units/mg) in Polystyrol-Halbmikroküvetten in einem Gesamtvolumen von 1 ml durchgeführt.
In einem Vorversuch wurde mit jeder Wirksubstanz bestimmt, ob sie Thrombin schnell oder langsam inhibiert. Dazu wurde die Reaktion einmal durch Zugabe von 0.03 NIH-units Thrombin zu einer 100 µM-Lösung des Substrats und des Wirkstoffs gestartet. In einem zweiten Versuch wurde Substrat zu einer 5 Min. inkubierten Lösung des Thrombins und des Wirkstoffs gegeben. Die Zunahme der Konzentration von p-Nitroanilin mit der Zeit wurde spektroskopisch (UV-VIS-Spektrophotometer Lambda-2 der Firma Perkin-Elmer) bei 405 nm 12 Min. verfolgt. Da die bei beiden Versuchen erhaltenen Messkurven linear und parallel waren, handelt es sich bei den Wirkstoffen der folgenden Tabelle um schnelle Thrombin-Inhibitoren. Die Inhibitionskonstanten Ki wurden dann wie folgt bestimmt. Das Substrat wurde in den Konzentrationen 100 µM, 50 µM. 30 µM, 20 µM eingesetzt und bei jeder Substratkonzentration eine Messung ohne Inhibitor und drei Messungen in Gegenwart unterschiedlicher Konzentrationen der in der folgenden Tabelle aufgeführten Inhibitoren durchgeführt. Die Reaktionen wurden durch Zugabe von Thrombin gestartet. Die Zunahme der Extinktion bei 405 nm durch das entstehende p-Nitroanilin über einen Zeitraum von 12 Min. verfolgt. Im Abstand von 20 Sek. wurden Meßpunkte (Zeit vs. Extinktion) auf einen PC übertragen. Aus den Daten wurden die Geschwindigkeiten Vo (Extinktionsänderung pro Sek.: Messungen ohne Inhibitor) und Vi (Messungen mit Inhibitor) durch lineare Regression bestimmt. Benutzt wurde nur der Teil jeder Messung. bei dem sich die Substratkonzentration um weniger als 15 % vermindert hatte. Aus einer Meßreihe (konstante Inhibitorkonzentration, variable Substratkonzentrationen) bestimmte man Km' und Vmax durch nichtlinearen Fit auf die Gleichung V =(Vmax ∗ [S])/([S] + Km ') [formula]
Aus den gesamten Meßreihen berechnete man schließlich Ki durch nichtlinearen Fit auf die Gleichung V =(Vmax ∗ [S])/(Km ∗ (1 + […] ) + [S]) [formula] Die Michaeliskonstante Km betrug in allen Messungen 3.8 ± 2 µM. Die Inhibitionskonstanten Ki der Wirksubstanzen sind in der folgenden Tabelle in der Einheit µM angegeben.

Pferdethrombin = experiment: Thrombin time (clotting of human citrate plasma with thrombin reagent, ball coagulometer); format: biochemical, Pferd; details: thrombin time as difference to control (control ca. 24 Sek.), test stopped at 5 Min.; for TT2.5: 2.5 µM in final volume; for TT25: 25 µM in final volume; for TT250: 250 µM in final volume
Experimental: Ein in der klinischen Gerinnungsdiagnostik gebräuchlicher Test ist die Thrombinzeit. Dieser Parameter erfaßt die Thrombinwirkung auf Fibrinogen und die Gerinnselbildung. Inhibitoren von Thrombin bewirken eine Verlängerung der Thrombinzeit.
Zur Plasmagewinnung wurden 9 Teile frisches Blut gesunder Spender mit einem Teil Natriumcitratlösung (0.11 Mol/l) gemischt und bei ca. 3000 U/min 10 Min. bei Raumtemperatur zentrifugiert. Das Plasma wurde abpipettiert und kann bei Raumtemperatur ca. 8 h aufbewahrt werden.
200 µl Citratplasma wurden in einem Kugelkoagulometer (KC 10 der Firma Amelung) 2 Min. bei 37 °C inkubiert, Zu 190 µl vortemperiertem Thrombin-Reagenz (Boehringer Mannheim GmbH; enthält ca. 3 U/ml Pferdethrombin und 0.0125 M Ca^++) gab man 10 µl Dimethylsulfoxid (DMSO) oder eine Lösung der Wirksubstanz in DMSO. Mit Zugabe dieser 200 µl Lösung zum Plasma wurde eine Stoppuhr gestartet und der Zeitpunkt bis zum Eintritt der Gerinnung bestimmt. Die Thrombinzeit betrug bei den Kontrollmessungen ca. 24 Sek. und wurde durch die Wirksubstanzen deutlich verlängert. War die Thrombinzeit in Gegenwart einer Beispielverbindung länger als 5 Min.. wurde der Versuch abgebrochen.
In der folgenden Tabelle sind die gemessenen Thrombinzeiten in Sekunden als Differenz zur Kontrolle angegeben. Die Konzentrationen der Wirksubstanzen betrugen im Endvolumen 250 µM (TT250), 25 µM (TT25) und 2.5 µM (TT2.5).

SMILES | Ki (humanem α-Thrombin) | TT2.5 (Pferdethrombin) | TT25 (Pferdethrombin) | TT250 (Pferdethrombin)
Cc1cc(OCCNc2ccncc2)cc(N(CCN)S(=O)(=O)c2ccccc2)c1 [Beispiel 100, N-(2-Aminoethyl)-N-{3-[2-(pyridin-4-ylamino)-ethoxy]-5-methyl-phenyl}-benzolsulfonamid] | 0.083 µM | 186 Sekunden | 300 Sekunden | 300 Sekunden
COc1cc(OCCNc2ccncc2)cc(N(C)S(=O)(=O)c2ccccc2)c1 [Beispiel 83, N-Methyl-N-{3-[2-(pyridin-4-ylamino)-ethoxy]-5-methoxy-phenyl}-benzolsulfonamid] | 0.1 µM | 48 Sekunden | 192 Sekunden | 300 Sekunden
CC(CNc1ccncc1)Oc1cccc(NS(=O)(=O)c2ccccc2)c1 (centres unmarked) [Beispiel 10, N-{3-[1-Methyl-2-(pyridin-4-ylamino)-ethoxy]-phenyl}-benzolsulfonamid] | 3 µM | 7 Sekunden | 43 Sekunden | 157 Sekunden
O=S(=O)(c1ccccc1)N(Cc1ccccc1)c1cccc(OCCNc2ccncc2)c1 [Beispiel 15, N-Benzyl-N-{3-[2-(pyridin-4-ylamino)-ethoxy]-phenyl}-benzolsulfonamid] | 0.13 µM | 15 Sekunden | 144 Sekunden | 270 Sekunden
COc1cc(OCCNc2ccncc2)cc(S(=O)(=O)N(C)c2ccccc2)c1 [Beispiel 80, 3-Methoxy-N-methyl-N-phenyl-5-[2-(pyridin-4-ylamino)-ethoxy]-benzolsulfonamid] | 0.15 µM | 44 Sekunden | 213 Sekunden | 300 Sekunden
CCc1cc(OCCNc2ccncc2)cc(OS(=O)(=O)c2ccccc2)c1 [Beispiel 90, Benzolsulfonsäure-3-ethyl-5-[2-(pyridin-4-ylamino)-ethoxy]-phenyl-ester] | 0.024 µM | 125 Sekunden | 300 Sekunden | 300 Sekunden
Cc1ccc(OCCNc2ccncc2)cc1NS(=O)(=O)c1ccccc1 [Beispiel 60, N-{2-Methyl-5-[2-(pyridin-4-ylamino)-ethoxy]-phenyl}-benzolsulfonamid] | 0.6 µM | 13 Sekunden | 62 Sekunden | 137 Sekunden
Cc1cc(OCCN(C)c2ccncc2)cc(OS(=O)(=O)c2ccccc2Cl)c1 [Beispiel 72, 2-Chlorbenzolsulfonsäure-5-methyl-3-[2-(N-methyl-pyridin-4-ylamino)-ethoxy]-phenylester] | 0.024 µM | 159 Sekunden | 300 Sekunden | 300 Sekunden
Cc1cc(OCCNc2ccncc2)cc(N(C)S(=O)(=O)c2ccccc2OCC(=O)O)c1 [Beispiel 124] | 0.25 µM | 104 Sekunden | 300 Sekunden | 300 Sekunden
COc1ccc(OCCNc2ccncc2)cc1NS(=O)(=O)c1ccccc1 [Beispiel 59, N-{2-Methoxy-5-[2-(pyridin-4-ylamino)-ethoxy]-phenyl}-benzolsulfonamid] | 6 µM | 0 Sekunden | 8 Sekunden | 53 Sekunden
O=S(=O)(c1cc(Cl)cc(NCCNc2ccncc2)c1)N(Cc1ccccc1)c1ccccc1 [Beispiel 86, 3-Chlor-N-benzyl-N-phenyl-5-[2-(pyridin-4-ylamino)-ethylamino]-benzolsulfonamid] | 0.04 µM | 11 Sekunden | 167 Sekunden | 300 Sekunden
O=S(=O)(Nc1cc(NCCNc2ccncc2)cc(C(F)(F)F)c1)c1ccccc1 [Beispiel 79, N-{3-[2-(Pyridin-4-ylamino)-ethylamino]-5-trifluormethyl-phenyl}-benzolsulfonamid] | 5 µM | 0 Sekunden | 8 Sekunden | 30 Sekunden
O=S(=O)(Nc1cccc(OCCNc2ccncc2)c1)c1cccc2ccccc12 [Beispiel 2, N-{3-[2-(Pyridin-4-ylamino)-ethoxy]-phenyl}-1-naphthalin-sulfonamid] | 0.3 µM | 6 Sekunden | 40 Sekunden | 150 Sekunden
CCOC(=O)N(c1cc(C)cc(OCCNc2ccncc2)c1)S(=O)(=O)c1ccccc1OC [Beispiel 125, N-Ethoxycarbonyl-N-{3-methyl-5-[2-(pyridin-4-ylamino)-ethoxy]-phenyl}-2-methoxybenzolsulfonamid] | 0.15 µM | 73 Sekunden | 273 Sekunden | 300 Sekunden
Cc1cc(OCCNc2ccncc2)cc(N(CCCCCC(=O)O)S(=O)(=O)c2ccccc2)c1 [Beispiel 108, 6-(Benzolsulfonyl-{3-methyl-5-[2-(pyridin-4-yl-amino)-ethoxy]-phenyl}-amino)-hexansäure] | 0.055 µM | 62 Sekunden | 300 Sekunden | 300 Sekunden
O=S(=O)(Nc1cccc(OCCNc2ccncc2)c1)C1CCCCC1 [Beispiel 8, N-{3-[2-(Pyridin-4-ylamino)-ethoxy]-phenyl}-cyclohexan-sulfonamid] | 1 µM | 13 Sekunden | 58 Sekunden | 288 Sekunden
O=S(=O)(Nc1cc(Br)cc(NCCNc2ccncc2)c1)c1ccccc1 [Beispiel 89, N-{3-[2-(Pyridin-4-ylamino)-ethylamino]-5-brom-phenyl}-benzolsulfonamid] | 1 µM | 6 Sekunden | 38 Sekunden | 132 Sekunden
